According to US20240148678A1, “SUSTAINED RELEASE INJECTABLE THERAPEUTIC FORMULATIONS USING APROTIC POLAR SOLVENTS” (Xeris Pharmaceuticals, Inc., priority 2022, published 2024):
Values joined by “and” are separate entries in the source; they are usually repeats but may differ in a detail not shown here. Equal values may be shown once.

Legend:
[1] = cited from earlier work
[2] = Storage stability of levothyroxine in DMSO formulations; assay type: physicochemical; settings: 5 mg/mL in DMSO without ionization stabilizing excipient; even in refrigeration
Method: These formulation studies are described in detail in U.S. Appl. No. 63/380,090, entitled “Stable Levothyroxine Formulations in Aprotic Polar Solvents,” filed on even day herewith, which is incorporated herein by reference in its entirety. […] The overall moisture content of the formulation was ˜5% when prepared using 1.0 N H2SO4. The moisture content of this formulation was due almost entirely to the added sulfuric acid (with a minor contribution from the trehalose dihydrate), which at 26 mM (from a 1.0 N (0.5 M) stock solution) results in a moisture content ˜5% (w/w). When prepared using concentrated acid (e.g., 10 N), the overall moisture content of the formulation could be reduced to about ˜1% without any significant impact on storage stability. Other exemplary formulations were prepared at a concentration of 5 mg/mL levothyroxine in DMSO that had been first acidified with about 13-15 mM sulfuric acid. These formulations were then used in levothyroxine pharmacokinetic pre-clinical studies using laboratory animals.

SMILES: CCOc1ccccc1OCCN[C@H](C)Cc1ccc(OC)c(S(N)(=O)=O)c1 [Tamsulosin, tamsulosin]
- solubility in DMSO ([1]; DMSO): 100 mM and > 40 mg/ml
- solubility in aqueous/physiological environments ([1]; aqueous/physiological): ~10 mM and 4 mg/ml

SMILES: N[C@@H](Cc1cc(I)c(Oc2cc(I)c(O)c(I)c2)c(I)c1)C(=O)O [levothyroxine]
- stability when solubilized directly in DMSO [2]: discolor and form degradation products within one day of storage
